Article PMC5896574 (ChemMedChem, 2017)
Where two headings read alike, the source gives them in different places.

What was measured:
[1] = tested on: HIV-1LAI; experiment: Antiviral assay using MT-2 cells exposed to HIV-1LAI; format: cell-based
[2] = tested on: HIV-1DRV^RP30; experiment: microbe, parasite or virus in culture; format: cell-based; settings: for fold change of IC50: HIV-1DRV^RP30 relative to HIV-1NL4-3
[3] = tested on: HIV-1DRV^RP40; experiment: microbe, parasite or virus in culture; format: cell-based; settings: for fold change of IC50: HIV-1DRV^RP40 relative to HIV-1NL4-3
[4] = tested on: HIV-1NL4-3; experiment: Antiviral p24 assay, MT-4 cells exposed to wild-type HIV-1NL4-3; format: cell-based
[5] = tested on: HIV-1DRV^RP20; experiment: microbe, parasite or virus in culture; format: cell-based; settings: for fold change of IC50: HIV-1DRV^RP20 relative to HIV-1NL4-3
[6] = tested on: HIVAO2; experiment: Antiviral activity of 3b against HIVAO2; format: cell-based, HIV
[7] = tested on: HIV-2ROD; experiment: Antiviral activity of 3b against HIV-2ROD; format: cell-based; settings: read-out: Antiviral activity (EC50)
[8] = tested on: HIVDRV^RP20; experiment: Antiviral activity of 3b against HIVDRV^RP20; format: cell-based, HIV; settings: read-out: Antiviral activity (EC50)
[9] = molecular target: HIV-1 protease (Human immunodeficiency virus type 1 group M subtype B, UniProt P04585); experiment: HIV-1 protease inhibitory assay; format: biochemical
[10] = read-out: antiviral IC50, MT-2 cells exposed to HIV-1LAI, mean of at least three experiments
[11] = Human immunodeficiency virus 1, MT4
[12] = Human immunodeficiency virus 1, MT2, read-out: antiviral IC50

`CC(C)CN(C[C@@H](O)[C@H](Cc1ccccc1)NC(=O)O[C@H]1CO[C@H]2OCC[C@H]21)S(=O)(=O)c1ccc([C@@H](C)O)cc1` [3e, (3R,3aS,6aR)-Hexahydrofuro[2,3-b]furan-3-yl ((2S,3R)-3-hydroxy-4-((4-((R)-1-hydroxyethyl)-N-isobutylphenyl)sulfonamido)-1-phe-nylbutan-2-yl)carbamate] gave an IC50 [1, 10] of 4 nM.

`CC(C)CN(C[C@@H](O)[C@H](Cc1ccccc1)NC(=O)O[C@H]1CO[C@H]2OCC[C@H]21)S(=O)(=O)c1ccc(-c2nc(CO)co2)cc1` [3h, (3R,3aS,6aR)-Hexahydrofuro[2,3-b]furan-3-yl ((2S,3R)-3-hydroxy-4-((4-(4-(hydroxymethyl)oxazol-2-yl)-N-isobutylphenyl)sulfona-mido)-1-phenylbutan-2-yl)carbamate] was tested, and the “fold change of IC50” value [2] was 99, the IC50 ([2]; MT-4 cells, 50 TCID50 HIV-1DRV^RP30, p24 assay) was 290 nM and the “fold change of IC50” value [3] was > 337. For the same compound, the IC50 ([3]; MT-4 cells, 50 TCID50 HIV-1DRV^RP40, p24 assay) was > 1000 nM, the IC50 ([4]; MT-4 cells, 50 TCID50 HIV-1NL4-3, p24 assay) was 3 nM and the “fold change of IC50” value [5] was 88. The IC50 ([5]; MT-4 cells, 50 TCID50 HIV-1DRV^RP20, p24 assay) was 260 nM and the IC50 [1, 10] was 3.9 nM.

With `CC(C)CN(CC(O)C(Cc1ccccc1)NC(=O)OC1COC2OCCC12)S(=O)(=O)c1ccc(-c2cnco2)cc1` [3i, (3R,3aS,6aR)-Hexahydrofuro[2,3-b]furan-3-yl ((2S,3R)-3-hydroxy-4-((N-isobutyl-4-(oxazol-5-yl)phenyl)sulfonamido)-1-phenylbu-tan-2-yl)carbamate] the IC50 [1, 10] was 2.8 nM.

With `CC(C)CN(C[C@@H](O)[C@H](Cc1ccccc1)NC(=O)O[C@H]1CO[C@H]2OCC[C@H]21)S(=O)(=O)c1ccc(C(=O)O)cc1` [3a, 4-(N-((2R,3S)-3-(((((3R,3aS,6aR)-Hexahydrofuro[2,3-b]furan-3-yl)oxy)carbonyl)amino)-2-hydroxy-4-phenylbutyl)-N-isobutylsul-famoyl)benzoic acid] the IC50 ([1]; read-out: antiviral IC50, MT-2 cells exposed to HIV-1LAI) was > 1000 nM.

With `CC(C)CN(C[C@@H](O)[C@H](Cc1ccccc1)NC(=O)O[C@H]1CO[C@H]2OCC[C@H]21)S(=O)(=O)c1ccc(N)cc1` [DRV, darunavir, reference compound] the IC50 [3, 11] was > 1000 nM, the IC50 [4, 11] was 3.4 nM and the IC50 [5, 11] was 43 nM. The IC50 [1, 12] was 1.6 nM.

`CC(C)CN(C[C@@H](O)[C@H](Cc1ccccc1)NC(=O)O[C@H]1CO[C@H]2OCC[C@H]21)S(=O)(=O)c1ccc(C(N)=O)cc1` [3b, (3R,3aS,6aR)-Hexahydrofuro[2,3-b]furan-3-yl ((2S,3R)-4-((4-carba-moyl-N-isobutylphenyl)sulfonamido)-3-hydroxy-1-phenylbutan-2-yl)carbamate] showed an EC50 [6] of 29 nM, an EC50 [7] of 30 nM and an EC50 [8] of 97 nM. The IC50 [1, 10] was 45 nM.

`COC(=O)c1coc(-c2ccc(S(=O)(=O)N(CC(C)C)C[C@@H](O)[C@H](Cc3ccccc3)NC(=O)O[C@H]3CO[C@H]4OCC[C@H]43)cc2)n1` [3g, Methyl 2-(4-(N-((2R,3S)-3-(((((3R,3aS,6aR)-hexahydrofuro[2,3-b]furan-3-yl)oxy)carbonyl)amino)-2-hydroxy-4-phenylbutyl)-N-isobutylsulfamoyl)phenyl)oxazole-4-carboxylate] was tested, and the “fold change of IC50” value [2] was 20, the IC50 [2, 11] was 430 nM and the “fold change of IC50” value [3] was > 46. For the same compound, the IC50 [3, 11] was > 1000 nM, the Ki [9] was 0.0279 nM and the IC50 [4, 11] was 22 nM. For the same compound, the “fold change of IC50” value [5] was 15, the IC50 [5, 11] was 320 nM and the IC50 [1, 12] was 6.2 nM.
